Data set [1] has as its system 60 bp pvirB FID (DNA, duplex) AGAATATTATTCTTTTATCCAATAAAGATAAATTGCATCAATCCAGCTATTAAAATAGTA/TACTATTTTAATAGCTGGATTGATGCAATTTATCTTTATTGGATAAAAGAATAATATTCT
The experiment in a line: fluorescent intercalator displacement (ethidium bromide). The following applies: 0.1 M NaCl; 0.1 M Tris-HCl pH 8.0, room temperature; 45 μM ethidium; 1.5 μM DNA; highest tested 100 μM.

The subject of data set [2] is 10 bp pvirB 51-60 FID (DNA, duplex) TAAAATAGTA/TACTATTTTA
The data set is described as above. To be noted: 0.1 M NaCl; 0.1 M Tris-HCl pH 8.0, room temperature; 7.5 μM ethidium; 1.5 μM DNA; highest tested 100 μM.

The target of data set [3] is T1, MalE-VirF binding to the pvirB DNA probe (Shigella flexneri, UniProt P0A2T1).
T1 construct: pMALvirF was constructed by cloning the virF gene into the vector, pMAL-c2x; made in house; host or cells: Shigella flexneri BS103 (pBAD202-MALvirF); initial preparations in E. coli KS1000 (pMALvirF)
T1 sequence (P0A2T1 whole entry, looked up): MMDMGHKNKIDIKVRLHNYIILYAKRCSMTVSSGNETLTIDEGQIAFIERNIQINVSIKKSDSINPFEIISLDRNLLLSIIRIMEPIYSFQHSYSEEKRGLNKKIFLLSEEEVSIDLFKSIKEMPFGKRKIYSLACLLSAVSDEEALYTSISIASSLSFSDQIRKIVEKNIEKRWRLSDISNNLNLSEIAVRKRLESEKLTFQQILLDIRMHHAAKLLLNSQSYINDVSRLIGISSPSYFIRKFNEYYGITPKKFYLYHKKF
The experiment in a line: Fluorescence polarization (FP) assay, inhibition of MalE-VirF binding to the pvirB DNA probe. To be noted: read-out: % Inhibition at 100 μM. On the procedure: The FP assays were conducted in duplicate in black, half-area, 96-well plates (Corning, Twerksbury, MA). First, 30 μL of 5’-Fluoroscein-pvirB DNA probe working standard was added to appropriate wells of the microplate. The pvirB DNA working standard was in TE/NaCl buffer (see above) supplemented with BSA (0.07 mg/mL) and salmon sperm DNA (0.7 mg/mL). Next, 30 μL of varying concentrations of MalE-VirF in amylose resin elution buffer (see above) was added to appropriate wells of the microplate. The final concentration of pvirB DNA was either 50 nM (for test wells) or none (for blank wells) and the final concentrations of MalE-VirF ranged from 45 μM to 0.12 μM (for test wells) or none (for control wells). For each concentration of MalE-VirF tested, a blank well was also set up that included all reagents except pvirB DNA. The microplate was then incubated for 20 minutes at 37°C and anisotropy was determined using a SpectraMax M5 plate reader (Molecular Devices, Sunnyvale, CA). Data was acquired using an excitation wavelength equal to 490 nm and an emission wavelength equal to 520 nm. To determine anisotropy the following equation was used: Anisotropy=F∥-G^*F⊥/F∥+2^*G^*F⊥^*1000 where: Fǁ = fluorescence intensity parallel to excitation source after blanking, F┴ = fluorescence intensity perpendicular to excitation source after blanking, and G = G-factor (correction for polarization bias of the detection system). After anisotropy was determined, data were plotted using GraphPad Prism (La Jolla, Ca) and fit to the following equation: […] where Y = specific binding, KD = dissociation constant, BMAX = maximum binding, X = MalE-VirF concentration, and b = y-intercept.
The FP protocol listed above was adapted to determine the IC50 of the small molecule hit compounds. Compounds (ranging from 200 μM to 3.1 μM) or DMSO for controls (1% final concentration) were added to the pvirB DNA probe working standard prior to addition to the microplates. For IC50 determination, the MalE-VirF and pvirB DNA probe concentrations were held constant at 20 μM and 50 nM, respectively. Positive controls were established to determine 100% VirF inhibition (no MalE-VirF present, 50 nM pvirB DNA probe) and negative controls were set up to determine no VirF inhibition (1% DMSO, 20 μM MalE-VirF, and 50 nM pvirB DNA probe). Once again blanks were set up to include all reagents, except pvirB DNA probe. All reactions were run in duplicate. Anisotropy was calculated as listed above and data were plotted using GraphPad Prism then fit to the following equation: Y=Bottom+(Top-Bottom)/(1+10^(X-logIC50)) where: Y = anisotropy, X = log of compound concentration (M), Top and Bottom = plateaus in anisotropy units, and LogIC50 = log of the concentration that inhibits 50% of VirF binding. In the presence of the compounds (no VirF), a small increase (~6%) in the DNA anisotropy was observed.
The FP protocol used for IC50 determination was adapted to test a library of small molecule inhibitors of VirF. All steps were identical to the above protocol except compounds were tested at only 100 μM final concentration and positive control samples included 100 μM of compound. Once again blanks were set up to include all reagents, except pvirB DNA probe, and all reactions were run in duplicate. Anisotropy was calculated as listed above, and %inhibition was calculated as follows: %inhibition=rneg-rtest/rneg^*100 where: rneg = average anisotropy for negative controls and rtest = average anisotropy in presence of compound. Note: All rneg and rtest values were normalized to positive control values.
For orientation: In fluorescence polarisation assays a small probe gives low polarisation when free and higher when bound to something large.

The target of data set [4] is T2, MalE-VirF binding to the 5'Cy5-pvirB DNA probe (Shigella flexneri, UniProt P0A2T1).
T2 construct: pMALvirF was constructed by cloning the virF gene into the vector, pMAL-c2x; made in house; host or cells: Shigella flexneri BS103 (pBAD202-MALvirF); initial preparations in E. coli KS1000 (pMALvirF)
T2 sequence (P0A2T1 whole entry, looked up): as above
As to the kind of experiment: Electrophoretic mobility shift assay (EMSA) of MalE-VirF binding to pvirB DNA probe. To be noted: compound 100 μM; MalE-VirF 1 μM; probe 0.25 μM. On the procedure: Reactions for the EMSAs were incubated in a 37°C water bath for 15 minutes. Reactions (15 μL total volume) were composed of 6 μL pvirB EMSA DNA probe (0.25 μM), 6 μL of either MalE-VirF (1.0 μM) or native gel loading buffer (Tris-HCl 0.3 M, 50% glycerol, 0.05% bromophenol blue, pH 7.0), 1 μL of salmon sperm DNA (0.7 mg/mL, Invitrogen), 0.5 μL BSA (0.07 mg/mL), and 1.5 μL of either DMSO or compound (100 μM). A 6% native polyacrylamide gel (29:1 acrylamide to bis-acrylamide ratio) was made with 0.25X TBE buffer (22 mM Tris Base, 22 mM boric acid, 0.5 mM EDTA, pH 9.5) for the EMSA. The gel was electrophoresed for 1 hour at 150 V in 0.25X TBE buffer at 4°C before samples were loaded. After the reaction solutions (12 μL) were loaded onto the gel, the gel was electrophoresed for an additional hour at 150 V and 4°C. The gel was then visualized using FluorChem M gel imager (Protein Simple, Santa Clara, CA) with a 607 nm excitation wavelength and a 710 nm emission filter.
(Mobility shift assays separate free from complexed probe on a gel.)

For data set [5], the system named is spread of an active S. flexneri infection. The following applies: at concentrations at or below their IC50s in the reporter assay; cited from earlier work. In general terms: Reporter assays use an easily measured gene product as a stand-in for the process of interest.
Data set [6] addresses T3, MalE-VirF (Shigella flexneri, UniProt P0A2T1 1-262). As to the kind of experiment: fluorescence anisotropy; 20 uM MalE-VirF, 50 nM DNA (r = 39 alone, 36 with protein). To be noted: protein: recombinant; tags: N-terminal MalE (MBP) fusion, not cleaved; label: 5'-fluorescein on top strand; blunt.
Data set [7] addresses T3, MalE-VirF. The experiment in a line: EMSA; 1 uM MalE-VirF, 0.25 uM DNA. To be noted: protein: recombinant, tags: N-terminal MalE (MBP) fusion, not cleaved, label: 5'-Cy5 on LUEGO strand (S5), blunt, three strands.
Data set [8] has as its target T3, MalE-VirF. As to the kind of experiment: fluorescence anisotropy. To be noted: protein: recombinant; tags: N-terminal MalE (MBP) fusion, not cleaved; label: 5'-fluorescein on top strand; blunt.

T3 sequence (P0A2T1 whole entry, the tested form may be a part): as the sequence (P0A2T1 whole entry, looked up) above

Regarding `CNCCOc1nc(-c2ccccc2)nc2c1oc1ccccc12`, the entries for the “%fluorescence” value in data set [1] and in data set [2] were 93 ± 3% and 95 ± 1%, respectively.
A word on the inhibition: it is the change of the read-out against control, counted positive when it falls. As for `CCN(CC)CCNc1nc(-c2ccccc2)nc2c1oc1ccccc12` [compound 048373], the inhibition at 100 µM in data set [3] was 15 ± 0.4%.
For `CCN(CC)CCOc1nc(C)nc2c1oc1ccccc12` [compound 050908], in data set [3], the inhibition at 100 µM was 18 ± 0.4%.
Consider `CN1CCN(c2nc(-c3ccccc3)nc3c2oc2ccccc23)CC1` [compound 078044], for which, in data set [3], the inhibition at 100 µM stood at 42 ± 0.4%.
For the molecule `Clc1ccc2nc(COc3ccccc3)[nH]c2c1` [compound 153578], in data set [4], the “Effect on MalE-VirF binding to the pvirB DNA probe (EMSA)” value is on record as “little to no effect on DNA binding”. Moreover, the “Inhibition of the spread of an active S. flexneri infection” value in data set [5] is recorded as “approximately 75%”.
As for `c1ccc(-c2nc(N3CCN(c4ccccc4)CC3)c3oc4ccccc4c3n2)cc1` [compound 568180], in data set [3], the inhibition at 100 µM was 2 ± 0.1%.
Still for that read-out and setting: as for `CCN(CC)CCOc1nc(-c2ccccc2)nc2c1oc1ccccc12` [compound 587109], the figure is 43 ± 1%; as for `CCc1nc(OCCN(C)C)c2oc3ccccc3c2n1` [compound 587469], 16 ± 0.4%; as for `CCN(CC)CCCOc1nc(-c2ccccc2)nc2c1oc1ccccc12` [compound 598089], 68%.
Turning to `O=c1[nH]c(-c2ccc(C(F)(F)F)cc2)nc2c1oc1ccccc12` [compound 765345], in data set [3], the inhibition at 100 µM is 1 ± 0.1%.
On the same count and under the same terms, then `c1ccc(-c2nc(N3CCOCC3)c3oc4ccccc4c3n2)cc1` [compound 9111063], with -5 ± 0.1%; and `c1ccc(-c2nc(Oc3cccnc3)c3oc4ccccc4c3n2)cc1` [compound 9660232], with 17 ± 2%.
On the same count and under the same terms, then `CCN(CC)c1cccc(Oc2nc(-c3ccccc3)nc3c2oc2ccccc23)c1` [compound 9660235], with 5 ± 0.2%.

B1: pScram FP probe (dsDNA)
DNA 1: TAAGTCCTAAATGGAAATTAAATTACGTAATTCACAAATATAGTATGATCATTTATATCA
DNA 2: TGATATAAATGATCATACTATATTTGTGAATTACGTAATTTAATTTCCATTTAGGACTTA
For B1, the binding result in the data set with MalE-VirF [6] is given as “no binding”.

B2: pScram EMSA probe (dsDNA)
DNA 1: GTGCCCTGGTCTGG
DNA 2: TAAGTCCTAAATGGAAATTAAATTACGTAATTCACAAATATAGTATGATCATTTATATCA
DNA 3: TGATATAAATGATCATACTATATTTGTGAATTACGTAATTTAATTTCCATTTAGGACTTACCAGACCAGGGCAC
Consider B2, for which, in the data set with MalE-VirF [7] (LUEGO (S5) and top (S3) abut with a nick on bottom S4 (74 nt)), the binding result is “no binding”.

B3: pvirB FP probe (dsDNA)
DNA 1: AGAATATTATTCTTTTATCCAATAAAGATAAATTGCATCAATCCAGCTATTAAAATAGTA
DNA 2: TACTATTTTAATAGCTGGATTGATGCAATTTATCTTTATTGGATAAAAGAATAATATTCT
By Kd is commonly meant a measure of binding affinity in units of concentration. For B3, the Kd with MalE-VirF [8] came to 2800 ± 1000 nM.

B4: pvirB EMSA probe (dsDNA)
DNA 1: GTGCCCTGGTCTGG
DNA 2: AGAATATTATTCTTTTATCCAATAAAGATAAATTGCATCAATCCAGCTATTAAAATAGTA
DNA 3: TACTATTTTAATAGCTGGATTGATGCAATTTATCTTTATTGGATAAAAGAATAATATTCTCCAGACCAGGGCAC
B4: in the data set with MalE-VirF [7] (LUEGO (S5) and top (S1) abut with a nick on bottom S2 (74 nt)), the binding result is “binds”.

Values taken from article PMC4564171 (PLoS ONE, 2015).
